Results from US9695167B2, “Substituted triazolo[1,5-a]pyridines and triazolo[1,5-a]pyrazines as LSD1 inhibitors” (Incyte Corporation, priority 2014, dated 2017).
pIC50: −log10 of the molar value.

Molecular target: LSD-1 enzyme (LSD1/KDM1A) (Homo sapiens (Human), UniProt O60341)
Assay: biochemical
Description: LANCE LSD1/KDM1A demethylase assay—10 μL of 1 nM LSD-1 enzyme (ENZO BML-SE544-0050) in the assay buffer (50 mM Tris, pH 7.5, 0.01% Tween-20, 25 mM NaCl, 5 mM DTT) were preincubated for 1 hour at 25° C. with 0.8 μL compound/DMSO dotted in black 384 well polystyrene plates. […] After stopping the reactions plates were incubated for 30 minutes and read on a PHERAstar FS plate reader (BMG Labtech).

| SMILES | pIC50 |
| --- | --- |
| CN[C@@H]1CCN(Cc2cc(-c3ccc(C#N)cc3)c(-c3ccc(C)cc3)n3ncnc23)C1 [Example 11, 4-[8-{[(3R)-3-(methylamino)pyrrolidin-1-yl]methyl}-5-(4-methylphenyl)[1,2,4]triazolo[1,5-a]pyridin-6-yl]benzonitrile] | > 7.30 |
| CN[C@H]1CCN(Cc2cc(-c3ccc(C#N)cc3)c(-c3ccc(C)cc3)n3ncnc23)C1 [Example 10, 4-[8-{[(3S)-3-(methylamino)pyrrolidin-1-yl]methyl}-5-(4-methylphenyl)[1,2,4]triazolo[1,5-a]pyridin-6-yl]benzonitrile] | > 7.30 |
| Cc1ccc(-c2c(-c3ccc(C#N)cc3)nc(OC[C@@H]3CCNC3)c3ncnn23)cc1 [Example 12, 4-{5-(4-methylphenyl)-8-[(3R)-pyrrolidin-3-ylmethoxy][1,2,4]triazolo[1,5-a]pyrazin-6-yl}benzonitrile] | > 7.30 |
| Cc1ccc(-c2c(-c3ccc(C#N)cc3)cc(CCC3CCNC3)c3ncnn23)cc1 (centres unmarked) [Example 2, 4-[5-(4-methylphenyl)-8-(2-pyrrolidin-3-ylethyl)[1,2,4]triazolo[1,5-a]pyridin-6-yl]benzonitrile] | > 7.30 |
| Cc1ccc(-c2c(-c3ccc(C#N)cc3)cc(OC[C@@H]3CCNC3)c3ncnn23)cc1 [Example 1, 4-{5-(4-methylphenyl)-8-[(3R)-pyrrolidin-3-ylmethoxy][1,2,4]triazolo[1,5-a]pyridin-6-yl}benzonitrile] | > 7.30 |
